Reference: patent publication US5670546A, “N-Arylalkylphenylacetamide derivatives” (Korean Research Institute of Chemical Technology, priority 1995, dated 1997)

Tests used:
KTC-ICR mice [1] = experiment: acetic acid induced writhing test (analgesic effect); format: in vivo; details: for ED50: Mus musculus, ip, read-out: ED50 acetic acid
Method: (§1) Physiological activities of the compounds obtained in Examples 1 to 11 were measured by employing acetic acid or phenyl-1,4-benzoquinone(PBQ) induced writhing test.
(§2) The KTC-ICR mice provided by Experimental Animal Laboratory of Korea Research Institute of Chemical Technology were used as test animals. […] They were tested in a group consisting of 8 mice for each dosage of a test compound after having been adjusted to the testing environment for a week. Food and water were given freely; and illumination was maintained on a 12-hour cycle.
(§3) Test solutions were prepared by dissolving one of the final products obtained in Examples 1 to 11 in distilled water containing 1% of Tween and 5% ethanol in a pre-determined concentration. The test solutions were used after serial dilution depending on each dosage.
(§4) The test solutions were intraperitoneally administered in a dose of 0.1 ml per 10 g of a body weight. 0.1 ml of 1% acetic acid solution or 0.1 ml of 0.02% PBQ solution was administered after 60 minutes in case of oral administration or after 30 minutes in case of subcutaneous injection.
(§5) Then, the number of writhings generated during a period of 10 minutes after 3 minutes from the administration of acetic acid was measured. In case of the administration of PBQ, the number of writhings generated during a period of 5 minutes after 5 minutes from the administration was measured.
(§6) For a comparison purpose, initially, distilled water containing 1% of Tween and 5% ethanol alone was administered to the control group. Then, the control groups were subjected the same procedure as the test groups.
(§7) The number of writhings suffered by the test group was compared with that of the control group; and the analgesic effect was measured in terms of the percentage of inhibition of writhing(I. W.). [formula] wherein: A is the number of writhings suffered by the control group; and
(§8) B is the number of writhings suffered by the test group.
(§9) I.W. values for each dosage were calculated by employing regression analysis. The amount of a test compound which is required in reducing the frequency of writhings to the 50% level of that generated by the control group, i.e., B=0.5A or I.W.=50%, is designated as ED50 (mg/kg of a body weight). Therefore, a lower value of ED50 represents a higher analgesic effect of the tested compound.

test animals = experiment: toxicity test: behavioral changes in the test animals observed by the naked eye; format: in vivo, KTC-ICR mice; design: key to Convulsion / Salivation / Urination: score; normal value 0, higher number = greater side effects; details: score; for Convulsion / Salivation / Urination: normal value 0; for Dyspnoea / Ptosis / Sedation / Vasodilation: normal value 4
Method: In order to monitor a harmful side-effect or toxicity of the present compounds, various behavioral changes in the test animals were observed. After the test and the control solutions were administered to the animals, symptoms such as sedation, ptosis, dyspnoea, vasodilation, convulsion, salivation and urination were observed by the naked eye and the level of such changes was represented by a numbering system: that is, the normal value of the last three behaviors(i.e., urination, convulsion and salivation) is 0; and that of the others(i.e., sedation, ptosis, dyspnoea and vasodilation) is 4. The higher the number is, the greater the side effects are.

KTC-ICR mice [2] = experiment: phenyl-1,4-benzoquinone (PBQ) induced writhing test (analgesic effect); format: in vivo; details: Mus musculus, ip, read-out: ED50 PBQ
Method: as §1, §2, §3, §4, §5, §6, §7, §8, §9

[3] = acetic acid induced writhing, 50% reduction of writhings vs control group, mice 20 to 25 g
[4] = PBQ induced writhing, 50% reduction of writhings vs control group, mice 14 to 18 g

COc1cc(CC(=O)NCCCc2ccc(C)c(C)c2)ccc1OCCN1CCNCC1 [Example 5, N-{3-(3,4-dimethylphenyl)propyl}-4-(2-piperazinylethoxy)-3-methoxyphenylacetamide]
ED50 (KTC-ICR mice [1]; [3]): > 20 mg/kg
Convulsion (test animals; Amount 1 mgg): 0
Salivation (test animals; Amount 1 mgg): 0
Urination (test animals; Amount 1 mgg): 0
Dyspnoea (test animals; Amount 1 mgg): 4
Ptosis (test animals; Amount 1 mgg): 4
Sedation (test animals; Amount 1 mgg): 4
Vasodilation (test animals; Amount 1 mgg): 4
Convulsion (test animals; Amount 2 mgg): 0
Salivation (test animals; Amount 2 mgg): 0
Urination (test animals; Amount 2 mgg): 0
Dyspnoea (test animals; Amount 2 mgg): 4
Ptosis (test animals; Amount 2 mgg): 4
Sedation (test animals; Amount 2 mgg): 4
Vasodilation (test animals; Amount 2 mgg): 4
Convulsion (test animals; Amount 4 mgg): 0
Salivation (test animals; Amount 4 mgg): 0
Urination (test animals; Amount 4 mgg): 0
Dyspnoea (test animals; Amount 4 mgg): 4
Ptosis (test animals; Amount 4 mgg): 6
Sedation (test animals; Amount 4 mgg): 6
Vasodilation (test animals; Amount 4 mgg): 4

COc1cc(CC(=O)NCCCc2ccc(C)c(C)c2)ccc1OCCNC(=O)OCc1ccccc1 [Example 7, N-{3-(3,4-dimethylphenyl)propyl}-4-{2-(N-benzyloxycarbonyl)aminoethoxy}-3-methoxyphenylacetamide]
ED50 (KTC-ICR mice [1]; [3]): 1.51 mg/kg

CNCCOc1ccc(CC(=O)NCCCc2ccc(C)c(C)c2)cc1OC [Example 8, N-{3-(3,4-dimethylphenyl)propyl}-4-(2-methylaminoethoxy)-3-methoxyphenylacetamide]
ED50 (KTC-ICR mice [2]; [4]): 0.68 mg/kg

COc1cc(CC(=O)NCCCc2ccc(C)c(C)c2)ccc1OCCNC(=O)c1ccccc1OC(C)=O [Example 11, N-{3-(3,4-dimethylphenyl)propyl}-4-[2-{N-(2-acetoxybenzoyl)}aminoethoxy]-3-methoxyphenylacetamide]
ED50 (KTC-ICR mice [1]; [3]): 4.15 mg/kg

COc1cc(CC(=O)NCCCc2ccc(C)c(C)c2)ccc1OCCNC=O [Example 6]
ED50 (KTC-ICR mice [1]; [3]): 0.26 mg/kg

COc1cc(CC(=O)NCCCc2ccc(C)c(C)c2)ccc1OCCN1CCCC1 [Example 9, N-{3-(3,4-dimethylphenyl)propyl}-4-{2-(1-pyrrolidinyl)ethoxy}-3-methoxyphenylacetamide]
ED50 (KTC-ICR mice [1]; [3]): > 5 mg/kg

COc1cc(CC(=O)NCCCc2ccc(C)c(C)c2)ccc1OCCNCCN [Example 4, N-{3-(3,4-dimethylphenyl)propyl}-4-[2-{N-(2-aminoethyl)}aminoethoxy]-3-methoxyphenylacetamide]
ED50 (KTC-ICR mice [1]; [3]): 1.78 mg/kg

CC(C)Cc1ccc(C(C)C(=O)O)cc1 (stereo not drawn) [Ibuprofen]
ED50 (KTC-ICR mice [2]; [4]): 11 mg/kg

CC(=O)Oc1ccccc1C(=O)O [Aspirin]
ED50 (KTC-ICR mice [2]): 71.4 mg/kg

CCCCCCCC/C=C\CCCCCCCC(=O)NCc1ccc(O)c(OC)c1 [NE-19550, Nvanillyloleamide, reference compound]
ED50 (KTC-ICR mice [1]): 15.7 mg/kg

COc1ccc2cc([C@H](C)C(=O)O)ccc2c1 [Naproxen]
ED50 (KTC-ICR mice [2]; [4]): 17.1 mg/kg

CCCCC1C(=O)N(c2ccccc2)N(c2ccccc2)C1=O [Phenylbutazone]
ED50 (KTC-ICR mice [2]; [4]): 79.8 mg/kg

CCCCCCCC/C=C\CCCCCCCC(=O)NCc1ccc(OCCN)c(OC)c1 [NE-21610, N{4(2-aminoethoxy)-3-methoxybenzyl)-oleamide, reference compound]
ED50 (KTC-ICR mice [1]; [3]): > 300 mg/kg
ED50 (KTC-ICR mice [2]; [4]): 38.3 mg/kg

COc1cc(CC(=O)NCCCc2ccc(C)c(C)c2)ccc1OCCN(CCO)CCO [Example 3, N-{3-(3,4-dimethylphenyl)propyl}-4-[2-{N,N-di(2-hydroxyethyl)}aminoethoxy]-3-methoxyphenylacetamide]
ED50 (KTC-ICR mice [1]; [3]): 1.41 mg/kg
Convulsion (test animals; Amount 1.25 mgg): 0
Salivation (test animals; Amount 1.25 mgg): 0
Urination (test animals; Amount 1.25 mgg): 0
Dyspnoea (test animals; Amount 1.25 mgg): 4
Ptosis (test animals; Amount 1.25 mgg): 4
Sedation (test animals; Amount 1.25 mgg): 4
Vasodilation (test animals; Amount 1.25 mgg): 4
Convulsion (test animals; Amount 2.5 mgg): 0
Salivation (test animals; Amount 2.5 mgg): 0
Urination (test animals; Amount 2.5 mgg): 0
Dyspnoea (test animals; Amount 2.5 mgg): 4
Ptosis (test animals; Amount 2.5 mgg): 5
Sedation (test animals; Amount 2.5 mgg): 5
Vasodilation (test animals; Amount 2.5 mgg): 4
Convulsion (test animals; Amount 5 mgg): 0
Salivation (test animals; Amount 5 mgg): 0
Urination (test animals; Amount 5 mgg): 0
Dyspnoea (test animals; Amount 5 mgg): 6
Ptosis (test animals; Amount 5 mgg): 7
Sedation (test animals; Amount 5 mgg): 6
Vasodilation (test animals; Amount 5 mgg): 5

CCOC(=O)NCCOc1ccc(CC(=O)NCCCc2ccc(C)c(C)c2)cc1OC [Example 10, N-{3-(3,4-dimethylphenyl)propyl}-4-{2-(N-ethyloxycarbonyl)aminoethoxy}-3-methoxyphenylacetamide]
ED50 acetic acid (KTC-ICR mice [1]; [3]): > 10 mg/kg of a body weight

COc1cc(CC(=O)NCCCc2ccc(C)c(C)c2)ccc1OCCN [Control, reference compound]
Convulsion (test animals; Amount 0.2 mgg): 1
Salivation (test animals; Amount 0.2 mgg): 0
Urination (test animals; Amount 0.2 mgg): 0
Dyspnoea (test animals; Amount 0.2 mgg): 4
Ptosis (test animals; Amount 0.2 mgg): 4
Sedation (test animals; Amount 0.2 mgg): 4
Vasodilation (test animals; Amount 0.2 mgg): 4
Convulsion (test animals; Amount 0.25 mgg): 1
Salivation (test animals; Amount 0.25 mgg): 0
Urination (test animals; Amount 0.25 mgg): 0
Dyspnoea (test animals; Amount 0.25 mgg): 5
Ptosis (test animals; Amount 0.25 mgg): 6
Sedation (test animals; Amount 0.25 mgg): 6
Vasodilation (test animals; Amount 0.25 mgg): 5
Convulsion (test animals; Amount 0.5 mgg): 1
Salivation (test animals; Amount 0.5 mgg): 0
Urination (test animals; Amount 0.5 mgg): 0
Dyspnoea (test animals; Amount 0.5 mgg): 6
Ptosis (test animals; Amount 0.5 mgg): 7
Sedation (test animals; Amount 0.5 mgg): 7
Vasodilation (test animals; Amount 0.5 mgg): 5
Convulsion (test animals; Amount 1 mgg): 1
Salivation (test animals; Amount 1 mgg): 0
Urination (test animals; Amount 1 mgg): 0
Dyspnoea (test animals; Amount 1 mgg): 6
Ptosis (test animals; Amount 1 mgg): 7
Sedation (test animals; Amount 1 mgg): 7
Vasodilation (test animals; Amount 1 mgg): 6

COc1cc(CC(=O)NCCCc2ccc(C)c(C)c2)ccc1OCCO [Example 1, N-{3-(3,4-dimethylphenyl)propyl}-4-(2-hydroxyethoxy)-3-methoxyphenylacetamide]
ED50 (KTC-ICR mice [1]; [3]): 2.01 mg/kg
Convulsion (test animals; Amount 1 mgg): 0
Salivation (test animals; Amount 1 mgg): 0
Urination (test animals; Amount 1 mgg): 0
Dyspnoea (test animals; Amount 1 mgg): 4
Ptosis (test animals; Amount 1 mgg): 4
Sedation (test animals; Amount 1 mgg): 4
Vasodilation (test animals; Amount 1 mgg): 4
Convulsion (test animals; Amount 2 mgg): 0
Salivation (test animals; Amount 2 mgg): 0
Urination (test animals; Amount 2 mgg): 0
Dyspnoea (test animals; Amount 2 mgg): 4
Ptosis (test animals; Amount 2 mgg): 4
Sedation (test animals; Amount 2 mgg): 4
Vasodilation (test animals; Amount 2 mgg): 4
Convulsion (test animals; Amount 4 mgg): 0
Salivation (test animals; Amount 4 mgg): 0
Urination (test animals; Amount 4 mgg): 0
Dyspnoea (test animals; Amount 4 mgg): 5
Ptosis (test animals; Amount 4 mgg): 5
Sedation (test animals; Amount 4 mgg): 6
Vasodilation (test animals; Amount 4 mgg): 5

COc1cc(CC(=O)NCCCc2ccc(C)c(C)c2)ccc1OCCNCCO [Example 2, N-{3-(3,4-dimethylphenyl)propyl}-4-[2-{N-(2-hydroxyethyl)}aminoethoxy]-3-methoxy phenylacetamide]
ED50 (KTC-ICR mice [1]; [3]): 0.3 mg/kg
ED50 (KTC-ICR mice [2]; [4]): 0.83 mg/kg
Convulsion (test animals; Amount 0.25 mgg): 0
Salivation (test animals; Amount 0.25 mgg): 0
Urination (test animals; Amount 0.25 mgg): 0
Dyspnoea (test animals; Amount 0.25 mgg): 4
Ptosis (test animals; Amount 0.25 mgg): 4
Sedation (test animals; Amount 0.25 mgg): 4
Vasodilation (test animals; Amount 0.25 mgg): 4
Convulsion (test animals; Amount 0.5 mgg): 0
Salivation (test animals; Amount 0.5 mgg): 0
Urination (test animals; Amount 0.5 mgg): 0
Dyspnoea (test animals; Amount 0.5 mgg): 4
Ptosis (test animals; Amount 0.5 mgg): 5
Sedation (test animals; Amount 0.5 mgg): 5
Vasodilation (test animals; Amount 0.5 mgg): 4
Convulsion (test animals; Amount 1 mgg): 0
Salivation (test animals; Amount 1 mgg): 0
Urination (test animals; Amount 1 mgg): 0
Dyspnoea (test animals; Amount 1 mgg): 5
Ptosis (test animals; Amount 1 mgg): 6
Sedation (test animals; Amount 1 mgg): 6
Vasodilation (test animals; Amount 1 mgg): 5

COc1cc(CNC(=O)CCCC/C=C/C(C)C)ccc1O [Capsaicin, Nvanillyl-trans-8-methyl-6-nonenamide, reference compound]
ED50 (KTC-ICR mice [1]): 1.34 mg/kg
